Results: patent US7851638B2, “Cyclohexanesulfonyl derivatives as GLYT1 inhibitors to treat schizophrenia” (Merck Sharp & Dohme Limited, priority 2005, dated 2010)

Cc1nc(C(F)(F)F)ccc1C(=O)NCC1(CC2CC2)CCC(S(=O)(=O)CC2CC2)CC1 (stereo not shown) [Example 3, N-(4-Cyclopropylmethanesulfonyl-1-cyclopropylmethyl-cyclohexylmethyl)-2-methyl-6-trifluoromethyl-nicotinamide]
melting point: 148 to 151 °C
